Source: ChEMBL document CHEMBL3885861, “Open TG-GATES”

Species on record: Rattus norvegicus
Experiment: Open TG-GATES - Regimen: Daily Repeat
Assay type: toxicity, organism-based, Sprague-Dawley
Design: regimen Daily Repeat, gender Male, age 6 weeks
Conditions: in vivo, po, 0 mg/kg, route gavage, dose level Control; for APTT / Bas / Eos / Fbg / Hb / Ht / Lym / MCH / MCHC / MCV / Mono / Neu / PT / Plat / RBC / Ret / WBC: tissue Blood; for KIDNEY_L / KIDNEY_R / KIDNEY_TOTAL: tissue Kidney; for LIVER: tissue Liver; for A/G / ALP / ALT / AST / BUN / CRE / Ca / Cl / DBIL / GLC / IP / K / LDH / Na / PL / RALB / TBIL / TC / TG / TP / gamma-GTP: tissue Plasma

## CC(C)NNC(=O)c1ccncc1 [IPRONIAZID]
72 h, time 3 day
  TERMINAL_BW: 213.5 g
  APTT: 21.8 s
  Bas: 0%
  Eos: 1%
  Fbg: 301.6 mg/dL
  Hb: 13.2 g/dL
  Ht: 38.2%
  Lym: 78.8%
  MCH: 21.2 pg
  MCHC: 34.5%
  MCV: 61.3 fL
  Mono: 2.8%
  Neu: 16.4%
  PT: 16 s
  Plat: 127.9 x10_4/uL
  RBC: 622.8 x10_4/ul
  Ret: 7.5%
  WBC: 99.6 x10_2/uL
  KIDNEY_L: 1 g
  KIDNEY_R: 1 g
  KIDNEY_TOTAL: 1.9 g
  LIVER: 10.5 g
  A/G: 1.3
  ALP: 1294.6 IU/L
  ALT: 41 IU/L
  AST: 70.2 IU/L
  BUN: 18 mg/dL
  CRE: 0.2 mg/dL
  Ca: 10.8 mg/dL
  Cl: 106.6 meq/L
  DBIL: 0 mg/dL
  GLC: 188.8 mg/dL
  IP: 7.2 mg/dL
  K: 4.6 meq/L
  LDH: 261.8 IU/L
  Na: 141.8 meq/L
  PL: 159.6 mg/dL
  RALB: 3.1 g/dL
  TBIL: 0.004 mg/dL
  TC: 83.8 mg/dL
  TG: 100.4 mg/dL
  TP: 5.5 g/dL
  gamma-GTP: 1 IU/L
[…], time 7 day
  TERMINAL_BW: 239.8 g
  APTT: 22.5 s
  Bas: 0%
  Eos: 0.8%
  Fbg: 304.6 mg/dL
  Hb: 13.5 g/dL
  Ht: 37.7%
  Lym: 82.4%
  MCH: 21 pg
  MCHC: 35.7%
  MCV: 58.6 fL
  Mono: 2.2%
  Neu: 13.8%
  PT: 15.4 s
  Plat: 110.1 x10_4/uL
  RBC: 642.8 x10_4/ul
  Ret: 6.4%
  WBC: 110.4 x10_2/uL
  KIDNEY_L: 1 g
  KIDNEY_R: 1 g
  KIDNEY_TOTAL: 2 g
  LIVER: 11.2 g
  A/G: 1.1
  ALP: 1693 IU/L
  ALT: 46.6 IU/L
  AST: 77.8 IU/L
  BUN: 19.2 mg/dL
  CRE: 0.2 mg/dL
  Ca: 10.6 mg/dL
  Cl: 106.4 meq/L
  DBIL: 0 mg/dL
  GLC: 198.4 mg/dL
  IP: 6.8 mg/dL
  K: 4 meq/L
  LDH: 220.4 IU/L
  Na: 141.2 meq/L
  PL: 156.2 mg/dL
  RALB: 2.9 g/dL
  TBIL: 0.002 mg/dL
  TC: 77.4 mg/dL
  TG: 110.6 mg/dL
  TP: 5.5 g/dL
  gamma-GTP: 1.2 IU/L
[…], time 14 day
  TERMINAL_BW: 277.2 g
  APTT: 22.8 s
  Bas: 0%
  Eos: 1%
  Fbg: 301.2 mg/dL
  Hb: 13.6 g/dL
  Ht: 39.5%
  Lym: 82.8%
  MCH: 20 pg
  MCHC: 34.4%
  MCV: 58.1 fL
  Mono: 2.4%
  Neu: 13.4%
  PT: 16 s
  Plat: 110.6 x10_4/uL
  RBC: 679.4 x10_4/ul
  Ret: 5.1%
  WBC: 106.6 x10_2/uL
  KIDNEY_L: 1.1 g
  KIDNEY_R: 1.1 g
  KIDNEY_TOTAL: 2.1 g
  LIVER: 11.8 g
  A/G: 1.1
  ALP: 1298.6 IU/L
  ALT: 35.8 IU/L
  AST: 68.4 IU/L
  BUN: 20.2 mg/dL
  CRE: 0.2 mg/dL
  Ca: 10.5 mg/dL
  Cl: 107.4 meq/L
  DBIL: 0 mg/dL
  GLC: 187.4 mg/dL
  IP: 5.9 mg/dL
  K: 4 meq/L
  LDH: 176.8 IU/L
  Na: 141.8 meq/L
  PL: 135.2 mg/dL
  RALB: 3 g/dL
  TBIL: 0.006 mg/dL
  TC: 66.8 mg/dL
  TG: 126.6 mg/dL
  TP: 5.7 g/dL
  gamma-GTP: 1.6 IU/L
[…], time 28 day
  TERMINAL_BW: 363.7 g
  APTT: 25.2 s
  Bas: 0%
  Eos: 0.8%
  Fbg: 318.6 mg/dL
  Hb: 14.5 g/dL
  Ht: 40.9%
  Lym: 81.6%
  MCH: 19.7 pg
  MCHC: 35.6%
  MCV: 55.2 fL
  Mono: 1.8%
  Neu: 14.6%
  PT: 15.8 s
  Plat: 108.3 x10_4/uL
  RBC: 741.4 x10_4/ul
  Ret: 3%
  WBC: 103.1 x10_2/uL
  KIDNEY_L: 1.4 g
  KIDNEY_R: 1.4 g
  KIDNEY_TOTAL: 2.8 g
  LIVER: 15.8 g
  A/G: 1.1
  ALP: 1067.8 IU/L
  ALT: 38.8 IU/L
  AST: 65.4 IU/L
  BUN: 17.4 mg/dL
  CRE: 0.2 mg/dL
  Ca: 10.7 mg/dL
  Cl: 105.2 meq/L
  DBIL: 0.002 mg/dL
  GLC: 190.8 mg/dL
  IP: 6.6 mg/dL
  K: 4 meq/L
  LDH: 171.2 IU/L
  Na: 142 meq/L
  PL: 142.4 mg/dL
  RALB: 3.2 g/dL
  TBIL: 0.014 mg/dL
  TC: 70.8 mg/dL
  TG: 137.6 mg/dL
  TP: 6.1 g/dL
  gamma-GTP: 1.6 IU/L
